Source: patent publication US12201633B2, “Compounds and methods for treatment of visceral pain” (Arena Pharmaceuticals, Inc., priority 2017, dated 2025)

Legend:
human CB2 receptor [1] = target: T1, human CB2 receptor (Homo sapiens, UniProt P34972); assay: PathHunter β-arrestin assay, CB2
hCB1 = hCB1 (Homo sapiens, UniProt P21554); assay: PathHunter β-arrestin assay, CB1
human CB2 receptor [2] = target: T1, human CB2 receptor; assay: HTRF assay for direct cAMP measurement, CB2; type: cell-based; set-up: 93-0164 (CHO-K1 EA-Arrestin parental line); host or cells: CHO-K1 EA-Arrestin, clone #61

T1 sequence (P34972 whole entry): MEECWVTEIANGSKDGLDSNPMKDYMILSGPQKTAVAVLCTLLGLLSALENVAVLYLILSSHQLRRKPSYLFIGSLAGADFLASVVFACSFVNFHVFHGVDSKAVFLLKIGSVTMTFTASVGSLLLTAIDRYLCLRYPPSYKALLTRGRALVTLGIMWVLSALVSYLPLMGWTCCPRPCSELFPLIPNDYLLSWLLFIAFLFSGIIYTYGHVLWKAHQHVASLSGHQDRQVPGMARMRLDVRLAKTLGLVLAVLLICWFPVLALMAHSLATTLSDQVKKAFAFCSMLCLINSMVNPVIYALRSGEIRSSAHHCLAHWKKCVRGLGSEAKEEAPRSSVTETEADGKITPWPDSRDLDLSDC
Chain of hCB1 (P21554 whole entry): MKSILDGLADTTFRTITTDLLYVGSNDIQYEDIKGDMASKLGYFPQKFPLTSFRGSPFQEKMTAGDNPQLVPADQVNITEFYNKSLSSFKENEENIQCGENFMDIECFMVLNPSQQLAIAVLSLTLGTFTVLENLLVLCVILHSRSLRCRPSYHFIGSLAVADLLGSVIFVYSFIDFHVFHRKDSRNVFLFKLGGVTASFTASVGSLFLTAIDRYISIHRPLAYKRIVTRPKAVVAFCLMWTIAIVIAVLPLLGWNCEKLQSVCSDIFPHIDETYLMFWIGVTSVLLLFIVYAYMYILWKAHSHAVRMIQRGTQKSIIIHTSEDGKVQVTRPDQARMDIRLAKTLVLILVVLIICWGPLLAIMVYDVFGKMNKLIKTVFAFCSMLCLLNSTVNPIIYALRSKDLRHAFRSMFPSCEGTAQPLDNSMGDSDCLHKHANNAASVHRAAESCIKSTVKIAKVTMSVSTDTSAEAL

SMILES	EC50 (human CB2 receptor [1])	EC50 (hCB1)	EC50 (human CB2 receptor [2])
CNC(=O)[C@@H](NC(=O)c1nn(-c2c[n+]([O-])ccn2)c2c1C[C@H]1C[C@@H]21)C(C)(C)C [Compound 704, (1aR,5aR)-2-(4-Oxy-pyrazin-2-yl)-1a,2,5,5a-tetrahydro-1H-2,3-diaza-cyclopropa[a]pentalene-4-carboxylic acid ((S)-2,2-dimethyl-1-methylcarbamoyl-propyl)-amide]	0.8 nM	228 nM	0.2 nM
N#Cc1ccnc(-n2nc(C(=O)N[C@H](CO)CC(F)(F)F)c3c2[C@H]2C[C@H]2C3)c1 [Compound 891, (1aS,5aS)-2-(4-Cyano-pyridin-2-yl)-1a,2,5,5a-tetrahydro-1H-2,3-diaza-cyclopropa[a]pentalene-4-carboxylic acid ((S)-3,3,3-trifluoro-1-hydroxymethyl-propyl)-amide]	16.2 nM	11800 nM	
CC(C)(C)[C@@H](CF)NC(=O)c1nn(-c2c[n+]([O-])ccn2)c2c1C[C@H]1C[C@@H]21 [Compound 918, (1aR,5aR)-2-(4-Oxy-pyrazin-2-yl)-1a,2,5,5a-tetrahydro-1H-2,3-diaza-cyclopropa[a]pentalene-4-carboxylic acid ((S)-1-fluoromethyl-2,2-dimethyl-propyl)-amide]	1.01 nM	437 nM	
CC(C)(C)NC(=O)c1nn(-c2cnccn2)c2c1C[C@H]1C[C@@H]21 [Compound 593, (1aR,5aR)-2-Pyrazin-2-yl-1a,2,5,5a-tetrahydro-1H-2,3-diaza-cyclopropa[a]pentalene-4-carboxylic acid tert-butylamide]	34.6 nM	1330 nM	7.15 nM
CC(C)(CF)NC(=O)c1nn(-c2cc(Cl)ccn2)c2c1C[C@@H]1C[C@H]21 [Compound 897, (1aS,5aS)-2-(4-Chloro-pyridin-2-yl)-1a,2,5,5a-tetrahydro-1H-2,3-diaza-cyclopropa[a]pentalene-4-carboxylic acid (2-fluoro-1,1-dimethyl-ethyl)-amide]	3.79 nM	951 nM	
CCNC(=O)[C@@H](NC(=O)c1nn(-c2c[n+]([O-])ccn2)c2c1C[C@H]1C[C@@H]21)C(C)(C)C [Compound 728, (1aR,5aR)-2-(4-Oxy-pyrazin-2-yl)-1a,2,5,5a-tetrahydro-1H-2,3-diaza-cyclopropa[a]pentalene-4-carboxylic acid ((S)-1-ethylcarbamoyl-2,2-dimethyl-propyl)-amide]	1.1 nM	251 nM	
O=C(N[C@H]1c2ccccc2C[C@H]1O)c1nn(-c2c[n+]([O-])ccn2)c2c1C[C@@H]1C[C@H]21 [Compound 921, (1aS,5aS)-2-(4-Oxy-pyrazin-2-yl)-1a,2,5,5a-tetrahydro-1H-2,3-diaza-cyclopropa[a]pentalene-4-carboxylic acid ((1S,2R)-2-hydroxy-indan-1-yl)-amide]	2.59 nM		0.2 nM
CC1(NC(=O)c2nn(-c3c[n+]([O-])ccn3)c3c2C[C@H]2C[C@@H]32)CCC1 [Compound 821, (1aR,5aR)-2-(4-Oxy-pyrazin-2-yl)-1a,2,5,5a-tetrahydro-1H-2,3-diaza-cyclopropa[a]pentalene-4-carboxylic acid (1-methyl-cyclobutyl)-amide]	7.12 nM		0.6 nM
O=C(N[C@H](CO)C1CCOCC1)c1nn(-c2cnccn2)c2c1C[C@H]1C[C@@H]21 [Compound 684, (1aR,5aR)-2-Pyrazin-2-yl-1a,2,5,5a-tetrahydro-1H-2,3-diaza-cyclopropa[a]pentalene-4-carboxylic acid ((S)-2-hydroxy-1-tetrahydro-pyran-4-yl-ethyl)-amide]	59 nM		7.08 nM
O=C(NC1(CO)CCC1)c1nn(-c2c[n+]([O-])ccn2)c2c1C[C@H]1C[C@@H]21 [Compound 698, (1aR,5aR)-2-(4-Oxy-pyrazin-2-yl)-1a,2,5,5a-tetrahydro-1H-2,3-diaza-cyclopropa[a]pentalene-4-carboxylic acid (1-hydroxymethyl-cyclobutyl)-amide]	27.9 nM		10.2 nM
O=C(NC(CO)(CF)CF)c1nn(-c2cc(Cl)ccn2)c2c1C[C@@H]1C[C@H]21 [Compound 889, (1aS,5aS)-2-(4-Chloro-pyridin-2-yl)-1a,2,5,5a-tetrahydro-1H-2,3-diaza-cyclopropa[a]pentalene-4-carboxylic acid (2-fluoro-1-fluoromethyl-1-hydroxymethyl-ethyl)-amide]	8.6 nM	4070 nM	
CC(C)(C#N)NC(=O)c1nn(-c2cc(Cl)ccn2)c2c1C[C@H]1C[C@@H]21 [Compound 625, (1aR,5aR)-2-(4-Chloro-pyridin-2-yl)-1a,2,5,5a-tetrahydro-1H-2,3-diaza-cyclopropa[a]pentalene-4-carboxylic acid (cyano-dimethyl-methyl)-amide]	11.8 nM		4.45 nM
COC(=O)[C@@H](NC(=O)c1nn(-c2c[n+]([O-])ccn2)c2c1C[C@H]1C[C@@H]21)C(C)(C)C [Compound 746, (S)-3,3-Dimethyl-2-{[(1aR,5aR)-2-(4-oxy-pyrazin-2-yl)-1a,2,5,5a-tetrahydro-1H-2,3-diaza-cyclopropa[a]pentalene-4-carbonyl]-amino}-butyric acid methyl ester]	0.7 nM	142 nM	
CC(C)(CO)NC(=O)c1nn(-c2cc(C#N)ccn2)c2c1C[C@H]1C[C@@H]21 [Compound 644, (1aR,5aR)-2-(4-Cyano-pyridin-2-yl)-1a,2,5,5a-tetrahydro-1H-2,3-diaza-cyclopropa[a]pentalene-4-carboxylic acid (2-hydroxy-1,1-dimethyl-ethyl)-amide]	4.69 nM	4470 nM	0.7 nM
O=C(NC1(c2ccccn2)CCC1)c1nn(-c2c[n+]([O-])ccn2)c2c1C[C@@H]1C[C@H]21 [Compound 700, (1aS,5aS)-2-(4-Oxy-pyrazin-2-yl)-1a,2,5,5a-tetrahydro-1H-2,3-diaza-cyclopropa[a]pentalene-4-carboxylic acid (1-pyridin-2-yl-cyclobutyl)-amide]	31.5 nM		3.14 nM
O=C(NC1(CF)CCC1)c1nn(-c2c[n+]([O-])ccn2)c2c1C[C@@H]1C[C@H]21 [Compound 924, (1aS,5aS)-2-(4-Oxy-pyrazin-2-yl)-1a,2,5,5a-tetrahydro-1H-2,3-diaza-cyclopropa[a]pentalene-4-carboxylic acid (1-fluoromethyl-cyclobutyl)-amide]	10.5 nM		0.8 nM
CC(C)(C)[C@@H](CO)NC(=O)c1nn(-c2cnccn2)c2c1C[C@H]1C[C@@H]21 [Compound 642, (1aR,5aR)-2-Pyrazin-2-yl-1a,2,5,5a-tetrahydro-1H-2,3-diaza-cyclopropa[a]pentalene-4-carboxylic acid ((S)-1-hydroxymethyl-2,2-dimethyl-propyl)-amide]	26.4 nM		4.38 nM
CC(CO)(CO)NC(=O)c1nn(-c2cc(C#N)ccn2)c2c1C[C@H]1C[C@@H]21 [Compound 820, (1aR,5aR)-2-(4-Cyano-pyridin-2-yl)-1a,2,5,5a-tetrahydro-1H-2,3-diaza-cyclopropa[a]pentalene-4-carboxylic acid (2-hydroxy-1-hydroxymethyl-1-methyl-ethyl)-amide]	38.4 nM		2.62 nM
